Laboratory results: patent US9622995B2, “Treatment of disorders associated with G protein-coupled receptor 35 (GPR35)” (TEMPLE UNIVERSITY—OF THE COMMONWEALTH SYSTEM OF HIGHER …, priority 2009, dated 2017)
pEC50: −log10 of the molar value.

Tests used:
[1] = target: T1, CB1 cannabinoid receptors (Homo sapiens, UniProt P21554); experiment: βarr2-GFP redistribution in U2OS cells co-expressing CB1 (specificity control); type: cell-based; details: U2OS cells co-expressing β-arr2-GFP and CB1, 1 μM; data not shown
T1 construct: expressed in transfected cells; host or cells: U2OS cells

[2] = target: T2, vasopressin receptor (V2R) (Homo sapiens, UniProt P30518); experiment: β-arrestin2-GFP redistribution in U2OS cells overexpressing V2R (specificity control); type: cell-based; details: U2OS cells with β-arrestin2-GFP and overexpressed V2R, 1 μM
T2 construct: expressed in transfected cells; host or cells: U2OS cells
Protocol: (§1) U20S cells expressing HA-GPR35a/βarr2-GFP (also known as UGPR35β cells) were plated in a 24-well plate onto coverslips that were coated with poly-D-lysine (0.02 mg/ml; Sigma-Aldrich, St. Louis, Mo., USA) for 1 hour. Cells were maintained at 37° C., 5% CO2 until ready for experiment (90% confluent). Cells were washed once with Hanks' balanced salt solution (HBSS, Cellgro, Mediatech, Inc, Manassas, Va., USA) comprising CaCl2 0.14 g/L, KCl 0.4 g/L, KH2PO4 0.06 g/L, MgSO4 0.097 g/L, NaCl 8 g/L, Na2HPO4 0.047 g/L, NaHCO3 0.35 g/L, and D-glucose 1.0 g/L. For receptor activation, agonist-evoked redistribution of βarr2-GFP was measured by applying the drug for 40 minutes. For measuring the effects of antagonist, agonist and antagonist were co-applied.
(§2) Cells were then fixed with 4% paraformaldehyde for 20 minutes at room temperature, followed by three washes with HBSS.
In that panel, fluorescence was observed close to the cell membrane. As a control for drug specificity, 1 μM pamoic acid was added to a U2OS cell line containing β-arrestin2-GFP and overexpressed vasopressin receptor (V2R).

[3] = Acetic acid writhing (abdominal constriction) test in mice; details: for mean number of writhes: male Swiss Webster mice, 0.6% acetic acid i.p., saline control 21±1
GPR55 receptors = target: T3, GPR55 receptors (Homo sapiens, UniProt Q9Y2T6); experiment: βarr2-GFP redistribution in U2OS cells co-expressing GPR55 (specificity control); type: cell-based; details: U2OS cells co-expressing βarr2-GFP and GPR55, 1 μM; data not shown
T3 construct: expressed in transfected cells; host or cells: U2OS cells

[4] = Middle cerebral artery occlusion with reperfusion (MCAO/R) stroke model; type: in vivo; details: male mice
Protocol: Several animal-based models for stroke have been proposed and validated, such as the artery occlusion and reperfusion model in male mice described by Zhang and coworkers (Microvasc. Res., 2009, 78(1):86-94). In this model, the animals are submitted to middle cerebral artery occlusion for a period of 60 minutes and then reperfusion is allowed. Cerebral infarction volume is measured by analyzing sections of the animal brain stained with triphenyltetrazolium chloride. Triphenyltetrazolium chloride is believed to be reduced to red formazan by mitochondrial enzymes, specifically succinate dehydrogenase (Lippold, 1982, Histochemistry 76:381-405). […] Therefore, TTC staining is extensively used in animal stroke experiments for quantitatively delineating the infarct volume (Memezawa et al., 1992, Exp. Brain Res. 89:67-78.; Hasegawa et al., 1995, J. Cereb. Blood Flow Metab. 15:179-187; Kuge et al., 1995, Stroke 26:1655-1658; Fuhai et al., 1997, J. Cereb. Blood Flow Metab. 17:1132-1135). […]
Cerebral infarction volume was measured 24 hours after MCAO/R. The animals were euthanized with an overdose of pentobarbital (200 mg/kg i.p.) 24 hours after MCAO and the brains were removed, and chilled on ice for 10 min to slightly harden the tissue. […]

human GPR35 = target: T4, human GPR35 (Homo sapiens, UniProt Q9HC97); details: CHO cells co-transfected with human GPR35, Aequorin readout; Wang et al. 2006; read-out: EC50 for receptor activation; cited from earlier work
T4 construct: host or cells: CHO cells

mouse GPR35 = target: T5, mouse GPR35 (Mus musculus, UniProt Q9ES90); details: CHO cells co-transfected with mouse GPR35, Aequorin readout; Wang et al. 2006; read-out: EC50 for receptor activation; cited from earlier work
T5 construct: host or cells: CHO cells

GPR35a = GPR35a (Homo sapiens, UniProt Q9HC97, S294R); experiment: β-arrestin2-GFP redistribution/aggregation in UGPR35β cells; type: cell-based; set-up: expressed in transfected cells; details: mean (95% confidence interval in brackets in the text), read-out: EC50 for β-arrestin2 aggregation
Excerpt: This cellular assay utilizes the intracellular β-arrestin protein as a reporter of receptor activity. […] Upon agonist-mediated GPCR activation, β-arrestins rapidly redistribute en masse to ligand-activated plasma membrane receptors (on the other hand, β-arrestins remain in the cytosol upon antagonist binding to the receptor). Activated GPCR/β-arrestin complexes will concentrate in clathrin-coated pits and/or internal vesicles where most GPCRs normally undergo internalization. At this juncture, the β-arrestin either (i) dissociates and returns to the cytoplasm, or (ii) further redistributes with the receptor into an intracellular endosomal vesicle, depending on the receptor type. It is the agonist-induced redistribution of β-arrestin-GFP into progressively smaller compartments (cytosolic compartment>plasma membrane>coated pit>endosomal compartment) that enables imaging of receptor activation.
This cell line is herein referred to as UGPR35β. Selected cells were maintained at 200 μg/ml G418® and 100 μg/ml Zeocin® at 37° C. and 5% CO2.
as §1, §2
βarr2-GFP aggregates were identified by a wavelet-based, Microsoft Windows-compatible computer program written in the MatLab programming environment. A program algorithm extracts from two dimensional images those pixels that generate objects of interest that fall within a predetermined range of sizes and intensities and that are embedded among widely varying local backgrounds (L. Barak, available from the Duke University GPCR Assay Bank). Concentration-effect curves for agonist-mediated receptor activation were analyzed by non-linear regression techniques using GraphPad Prism 4.0 software (GraphPad) and data were fitted to sigmoidal dose-response curves to obtain EC50 or IC50 values. Statistical analysis was performed using one-way analysis of variance (ANOVA) followed by Dunnett's post-test or two-tailed unpaired student t test. P values of <0.05 are considered significant.
A prototypical U2OS osteosarcoma cell line that permanently expresses β-arrestin-GFP and N-terminal triple HA-tagged human GPR35a was used to screen ligands for agonism or antagonism against the GPR35 receptor. […] Endogenous receptors are invisible to the assay because there are too few endogenous receptors of any type compared to the number of β-arrestin molecules in the cell to provide a measurable response.
Upon agonist-mediated GPCR activation, β-arrestins rapidly redistribute en masse to ligand-activated plasma membrane receptors, and then the activated GPCR/arrestin complexes concentrate in clathrincoated pits and/or internal vesicles.
Concentration response curves for β-arrestin2 aggregation were obtained for compounds of interest. For this study, UGPR35β cells were treated with different concentrations of a compound of interest and images of the cells (acquired in triplicate in three or more independent experiments) were analyzed for fluorescence.

rat GPR35 = target: T6, rat GPR35 (Rattus norvegicus, UniProt Q33BM1); details: CHO cells co-transfected with rat GPR35, Aequorin readout; Wang et al. 2006; read-out: EC50 for receptor activation; cited from earlier work
T6 construct: host or cells: CHO cells

GPR35 = GPR35 (Homo sapiens, UniProt Q9HC97, S294R); experiment: cell-based
Chain of GPR35 (Q9HC97 whole entry S294R): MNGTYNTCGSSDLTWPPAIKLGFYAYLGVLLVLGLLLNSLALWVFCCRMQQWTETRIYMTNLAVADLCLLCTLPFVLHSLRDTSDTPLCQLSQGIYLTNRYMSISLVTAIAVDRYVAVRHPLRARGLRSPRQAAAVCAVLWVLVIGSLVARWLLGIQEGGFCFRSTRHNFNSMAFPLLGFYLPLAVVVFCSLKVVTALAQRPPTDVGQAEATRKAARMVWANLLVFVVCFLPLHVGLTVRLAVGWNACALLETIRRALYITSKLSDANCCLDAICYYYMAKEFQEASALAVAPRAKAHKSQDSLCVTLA
Protocol: Loss of cell surface receptor may be evaluated by methods such as On-Cell Western analysis of the cells under treatment.
In a non-limiting example, a cell line that expresses N-terminal triple HA-tagged GPR35 receptor is used. After contacting the cells with a candidate GPR35 agonist and incubating the system for a set period of time, the cells are incubated with an anti-HA mouse antibody, followed by incubation with a fluorophore-labeled anti-mouse antibody. The resulting observed fluorescence is then used to assess the level of GPR35 receptor on the cell surface.
The previously described U2OS cells expressing HA-GPR35a/βarr2-GFP (also known as UGPR35β cells) were seeded and grown until confluence on the bottoms of a 96-well plate. […] Cells were washed once with Hanks' balanced salt solution (HBSS, Cellgro, Mediatech, Inc, Manassas, Va., USA) prior to appropriate drug treatment and then fixed with 4% formaldehyde for 20 minutes at room temperature. This step was followed by three washes with PBS for 5 minutes each.
The secondary antibody (IRDye 800 conjugated anti-mouse IgG, Rockland, Gilbertsville, Pa.; 1:1000 in LI-COR Odyssey® blocking buffer) was then added to the treated cells and incubated for 1 hour at room temperature protected from light.
Cells grown on coverslips were incubated over ice for 40 minutes with a 1:500 dilution of mouse monoclonal anti-HA antibody in blocking buffer (3% BSA in PBS), followed by three consecutive washes with PBS. […] Antibody-labeled cells were treated with agonist alone or in combination with antagonist for 40 minutes at 37° C., and the cells were then imaged.
On-Cell western analysis was performed using a LI-COR odyssey infra-red imager to quantify ligand potency to induce loss of cell surface receptor.
For each concentration of the compound of interest, the intensity of labeling was measured using immunofluorescence. The readings were plotted against the compound concentrations, yielding binding curves that allowed the calculation of EC50 values (FIGS. 6C-E).

T6 sequence (Q33BM1 1-306): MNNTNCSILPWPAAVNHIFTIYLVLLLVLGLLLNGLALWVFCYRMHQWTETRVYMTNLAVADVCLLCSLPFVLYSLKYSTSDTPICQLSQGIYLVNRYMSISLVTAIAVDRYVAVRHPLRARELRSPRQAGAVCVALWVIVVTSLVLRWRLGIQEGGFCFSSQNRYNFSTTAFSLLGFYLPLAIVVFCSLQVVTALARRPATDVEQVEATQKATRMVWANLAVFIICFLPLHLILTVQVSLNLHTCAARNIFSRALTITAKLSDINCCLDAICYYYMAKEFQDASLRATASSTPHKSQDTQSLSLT
T3 sequence (Q9Y2T6 whole entry): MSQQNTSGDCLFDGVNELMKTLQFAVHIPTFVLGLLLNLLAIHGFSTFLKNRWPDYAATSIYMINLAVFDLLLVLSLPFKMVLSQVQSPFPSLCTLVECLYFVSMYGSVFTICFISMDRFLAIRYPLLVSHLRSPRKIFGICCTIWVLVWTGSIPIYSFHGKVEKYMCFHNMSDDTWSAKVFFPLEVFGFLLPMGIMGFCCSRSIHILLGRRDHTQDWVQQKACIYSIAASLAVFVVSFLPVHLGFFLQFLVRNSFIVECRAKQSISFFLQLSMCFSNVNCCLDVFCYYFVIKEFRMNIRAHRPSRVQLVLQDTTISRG
T2 sequence (P30518 whole entry, species assumed): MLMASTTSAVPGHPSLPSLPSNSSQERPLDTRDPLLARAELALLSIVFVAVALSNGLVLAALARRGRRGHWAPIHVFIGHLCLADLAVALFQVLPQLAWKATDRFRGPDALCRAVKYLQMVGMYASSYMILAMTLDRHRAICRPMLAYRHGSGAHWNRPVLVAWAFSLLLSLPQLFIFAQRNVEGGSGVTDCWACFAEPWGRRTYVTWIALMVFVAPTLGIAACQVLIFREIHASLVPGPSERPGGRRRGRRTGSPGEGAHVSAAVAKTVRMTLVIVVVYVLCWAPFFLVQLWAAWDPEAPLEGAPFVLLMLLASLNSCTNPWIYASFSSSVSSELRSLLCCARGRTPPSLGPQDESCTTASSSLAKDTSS
T4 sequence (Q9HC97 whole entry): as the sequence (Q9HC97 whole entry S294R) above, with R294S counted along it
Chain of GPR35a (Q9HC97 whole entry S294R): as the sequence (Q9HC97 whole entry S294R) above
T1 sequence (P21554 whole entry): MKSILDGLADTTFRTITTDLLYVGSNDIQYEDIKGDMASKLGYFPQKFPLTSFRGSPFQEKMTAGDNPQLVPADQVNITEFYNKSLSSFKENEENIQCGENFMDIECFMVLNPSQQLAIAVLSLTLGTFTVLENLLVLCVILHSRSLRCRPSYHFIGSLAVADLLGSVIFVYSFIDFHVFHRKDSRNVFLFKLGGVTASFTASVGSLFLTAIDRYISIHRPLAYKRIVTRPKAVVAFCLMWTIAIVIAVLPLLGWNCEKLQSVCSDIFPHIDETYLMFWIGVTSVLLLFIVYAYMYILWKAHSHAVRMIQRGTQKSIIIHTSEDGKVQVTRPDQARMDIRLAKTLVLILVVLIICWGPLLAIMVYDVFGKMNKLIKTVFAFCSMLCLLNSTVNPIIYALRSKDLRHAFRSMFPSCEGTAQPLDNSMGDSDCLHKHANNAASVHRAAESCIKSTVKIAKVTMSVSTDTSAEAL
T5 sequence (Q9ES90 whole entry): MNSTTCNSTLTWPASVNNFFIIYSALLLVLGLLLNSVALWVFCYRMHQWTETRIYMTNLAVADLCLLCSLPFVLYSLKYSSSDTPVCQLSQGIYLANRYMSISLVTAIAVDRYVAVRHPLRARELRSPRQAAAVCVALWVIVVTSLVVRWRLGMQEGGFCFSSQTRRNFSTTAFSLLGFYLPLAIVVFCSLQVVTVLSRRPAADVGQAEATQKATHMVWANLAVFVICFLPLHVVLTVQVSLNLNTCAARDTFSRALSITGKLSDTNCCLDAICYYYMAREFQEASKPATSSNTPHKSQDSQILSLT

In the case of `O=C(O)c1cc2ccccc2c(Cc2c(O)c(C(=O)O)cc3ccccc23)c1O` [Compound 1, 4-[(3-carboxy-2-hydroxynaphthalen-1-yl)methyl]-3-hydroxynaphthalene-2-carboxylic acid], the βarr2-GFP response [1] was “no response was observed”, the “change in β-arrestin2-GFP fluorescence distribution” value [2] was “no change in fluorescence distribution was observed” and the “antinociceptive effect, in words” value ([3]; mice, s.c., dose of 100 mg/kg) was “essentially complete antinociception”. The “subcutaneous dose causing 50% antinociception” value ([3]; mice, s.c., given as disodium pamoate, 95% CL 28.3-90.3 mg/kg) was 40.5 mg/kg and the βarr2-GFP response (GPR55 receptors) was “no response was observed”.
With `O=C(O)c1cc2ccccc2c(Cc2c(O)c(C(=O)O)cc3ccccc23)c1O` [disodium pamoate] the infarction percentage ([4]; given one hour prior to reperfusion, measured 24 hours after MCAO/R, control about 27%) was “about 17%”, the “reduction in infarction percentage” value ([4]; versus untreated control) was “about 37%” and the “mean number of writhes” value ([3]; 25 mg/kg s.c.) was 14±2. The “mean number of writhes” value ([3]; 50 mg/kg s.c.) was 11±2 and the “mean number of writhes” value ([3]; 100 mg/kg s.c.) was 0.4±0.2.
In the case of `O=C(O)c1cc(=O)c2ccccc2[nH]1` [kynurenic acid, 2-carboxy-4-hydroxy-quinoline], the pEC50 (human GPR35) is listed as 4.40, the pEC50 (mouse GPR35) is listed as 4.96 and the pEC50 (GPR35a) is listed as 3.66. For the same compound, the pEC50 (rat GPR35) was 5.15.
For `CN1CCCN=C1/C=C/c1cccs1` [pyrantel pamoate], the pEC50 (GPR35) was 7.05.
